Experimental data from PMC7004250 (Cell chemical biology, 2019).

Legend:
EED in HeLa cells [1] = target: T1, EED in HeLa cells (Homo sapiens, UniProt O75530); assay: Jess ProteinSimple analysis of EED levels; assay type: cell-based; details: 5 μM, 4, 24 and 48 hrs, decrease stated at 24 hrs
EZH2 in HeLa cells [2] = assay: Jess ProteinSimple analysis of EZH2 levels; assay type: cell-based, human; details: 5 μM, 4, 24 and 48 hrs, decrease stated at 24 hrs
[3] = target: 6XHis-tagged recombinant EED (residues 1 – 441) (Homo sapiens, UniProt O75530); assay: TR-FRET EED binding assay; details: TR-FRET EED IC50 relative to EED226
Chain of 6XHis-tagged recombinant EED (residues 1 – 441) (O75530 whole entry, the tested form may be a part): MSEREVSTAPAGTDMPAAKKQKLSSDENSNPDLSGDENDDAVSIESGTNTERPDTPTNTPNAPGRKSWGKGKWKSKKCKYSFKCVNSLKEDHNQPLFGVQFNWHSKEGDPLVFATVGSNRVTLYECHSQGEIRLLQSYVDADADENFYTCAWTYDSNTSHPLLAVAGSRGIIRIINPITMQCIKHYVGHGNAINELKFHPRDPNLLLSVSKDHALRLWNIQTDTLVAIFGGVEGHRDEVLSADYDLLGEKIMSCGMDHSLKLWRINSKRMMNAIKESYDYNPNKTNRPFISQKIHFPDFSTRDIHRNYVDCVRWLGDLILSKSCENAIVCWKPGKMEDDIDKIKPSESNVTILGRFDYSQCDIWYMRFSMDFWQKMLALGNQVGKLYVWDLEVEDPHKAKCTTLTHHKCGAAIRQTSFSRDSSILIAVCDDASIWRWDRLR

EED in HeLa cells [4] = target: T1, EED in HeLa cells; assay: Western blot EED degradation in HeLa cells; assay type: cell-based; details: for EED protein levels: 10 μM, 24 to 72 hrs
EZH2 in HeLa cells [5] = assay: Western blot EZH2 degradation in HeLa cells; assay type: cell-based, human; details: for EZH2 protein levels: 10 μM, 24 to 72 hrs
H3K27me3 in HeLa cells = assay: Western blot H3K27me3 levels in HeLa cells; assay type: cell-based, human; details: for H3K27me3 reduced: 10 μM, after 72 hours
DB cell viability = assay type: cell-based; details: human, DB cells
EED = details: read-out: reported IC50 (EED); ref Huang et al., 2017; cited from earlier work
SUZ12 in HeLa cells [6] = assay: Western blot SUZ12 degradation in HeLa cells; assay type: cell-based, human
HeLa cells = assay: Cellular toxicity in HeLa cells; assay type: cell-based, human; details: concentrations up to 30 μM
SUZ12 in HeLa cells [7] = assay: Global proteomics; assay type: cell-based, human; details: 10 μM, 24 hrs, TMT proteomics
[8] = target: EED in DB cells (EZH2^Y641N) (Homo sapiens, UniProt O75530); assay: Western blot EED degradation in DB cells; assay type: cell-based
Chain of EED in DB cells (EZH2^Y641N) (O75530 2-441 limits assumed, stated change not applied): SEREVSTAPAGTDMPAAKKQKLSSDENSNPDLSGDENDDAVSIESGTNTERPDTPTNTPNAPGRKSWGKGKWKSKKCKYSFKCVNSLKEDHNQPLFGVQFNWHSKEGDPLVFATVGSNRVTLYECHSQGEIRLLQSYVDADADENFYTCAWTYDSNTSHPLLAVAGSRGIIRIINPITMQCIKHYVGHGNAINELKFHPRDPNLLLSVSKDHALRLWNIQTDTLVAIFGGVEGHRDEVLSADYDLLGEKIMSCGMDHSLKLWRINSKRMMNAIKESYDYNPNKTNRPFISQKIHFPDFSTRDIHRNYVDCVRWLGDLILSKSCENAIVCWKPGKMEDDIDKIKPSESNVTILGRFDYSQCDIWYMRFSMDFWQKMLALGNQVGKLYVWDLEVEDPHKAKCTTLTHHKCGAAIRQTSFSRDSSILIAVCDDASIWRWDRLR

[9] = test system: EZH2/EZH2^Y641N in DB cells; assay: Western blot EZH2 degradation in DB cells; assay type: cell-based, human
[10] = test system: SUZ12 in DB cells (EZH2^Y641N); assay: Western blot SUZ12 degradation in DB cells; assay type: cell-based, human
[11] = test system: H3K27me3 in DB cells (EZH2^Y641N); assay: Western blot H3K27me3 levels in DB cells; assay type: cell-based, human; details: 10 μM, after 72 hours
[12] = target: PRC2 subunits in Pfeiffer cells (EZH2^A677G) (Homo sapiens, UniProt O75530); assay: PRC2 degradation in Pfeiffer cells; assay type: cell-based; details: Figure S6
Chain of PRC2 subunits in Pfeiffer cells (EZH2^A677G) (O75530 whole entry, stated change not applied): as the sequence (O75530 whole entry, the tested form may be a part) above
Chain of PRC2 subunits in Pfeiffer cells (EZH2^A677G) (Q15910 whole entry A677G partner): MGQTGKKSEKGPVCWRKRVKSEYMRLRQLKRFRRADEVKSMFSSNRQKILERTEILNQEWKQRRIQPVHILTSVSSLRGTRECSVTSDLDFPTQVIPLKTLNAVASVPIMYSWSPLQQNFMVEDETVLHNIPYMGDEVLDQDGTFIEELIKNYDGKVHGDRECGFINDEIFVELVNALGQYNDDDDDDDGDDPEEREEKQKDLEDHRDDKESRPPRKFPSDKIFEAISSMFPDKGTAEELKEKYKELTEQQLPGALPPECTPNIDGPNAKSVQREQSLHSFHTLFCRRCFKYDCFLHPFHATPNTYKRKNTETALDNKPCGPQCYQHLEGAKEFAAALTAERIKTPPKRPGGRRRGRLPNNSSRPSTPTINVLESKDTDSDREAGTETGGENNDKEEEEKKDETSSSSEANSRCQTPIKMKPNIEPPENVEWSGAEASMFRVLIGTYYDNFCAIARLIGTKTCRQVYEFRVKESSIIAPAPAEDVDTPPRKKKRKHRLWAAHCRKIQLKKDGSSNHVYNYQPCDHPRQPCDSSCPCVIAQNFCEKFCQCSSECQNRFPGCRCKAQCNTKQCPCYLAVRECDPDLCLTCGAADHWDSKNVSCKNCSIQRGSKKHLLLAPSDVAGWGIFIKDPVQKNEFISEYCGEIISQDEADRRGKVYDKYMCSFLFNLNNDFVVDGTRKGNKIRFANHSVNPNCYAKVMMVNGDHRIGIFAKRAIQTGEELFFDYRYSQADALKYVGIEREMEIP
Chain of PRC2 subunits in Pfeiffer cells (EZH2^A677G) (Q15022 whole entry partner): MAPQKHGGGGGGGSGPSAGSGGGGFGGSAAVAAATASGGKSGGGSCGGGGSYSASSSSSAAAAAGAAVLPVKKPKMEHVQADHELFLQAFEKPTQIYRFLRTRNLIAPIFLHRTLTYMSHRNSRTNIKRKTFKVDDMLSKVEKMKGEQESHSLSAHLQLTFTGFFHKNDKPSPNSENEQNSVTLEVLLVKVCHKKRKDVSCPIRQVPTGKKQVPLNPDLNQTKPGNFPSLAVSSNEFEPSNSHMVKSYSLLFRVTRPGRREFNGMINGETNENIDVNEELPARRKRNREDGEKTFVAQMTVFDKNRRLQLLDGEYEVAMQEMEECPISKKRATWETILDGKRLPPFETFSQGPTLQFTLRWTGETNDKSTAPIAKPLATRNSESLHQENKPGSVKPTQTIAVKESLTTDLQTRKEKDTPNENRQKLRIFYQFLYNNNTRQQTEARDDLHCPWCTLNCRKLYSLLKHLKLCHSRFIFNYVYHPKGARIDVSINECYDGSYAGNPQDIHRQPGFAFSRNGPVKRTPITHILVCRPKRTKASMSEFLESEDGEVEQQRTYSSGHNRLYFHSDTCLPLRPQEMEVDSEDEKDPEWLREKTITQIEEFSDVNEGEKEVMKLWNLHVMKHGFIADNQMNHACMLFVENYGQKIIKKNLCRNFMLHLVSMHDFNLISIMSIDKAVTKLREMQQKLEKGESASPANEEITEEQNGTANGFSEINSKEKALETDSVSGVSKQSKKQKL

DB cells = assay: DB cell proliferation; assay type: cell-based, human; details: up to 12 days, 3 μM (Figure 6A)
Pfeiffer cells = assay: Pfeiffer cell proliferation; assay type: cell-based, human; details: up to 12 days, 3 μM (Figure 6B)

T1 sequence (O75530 whole entry): as the sequence (O75530 whole entry, the tested form may be a part) above

EED levels (Jess) (EED in HeLa cells [1])	loss in potency compared to EED226 [3]	Compound	EZH2 levels (Jess) (EZH2 in HeLa cells [2])	EED protein levels (EED in HeLa cells [4]; HeLa cells)	EZH2 protein levels (EZH2 in HeLa cells [5])	H3K27me3 reduced (H3K27me3 in HeLa cells)	viability at 12 days, 3 μM (DB cell viability)	also measured
significant degradation was not observed	8 fold	Cc1ncsc1-c1ccc(CNC(=O)[C@@H]2C[C@@H](O)CN2C(=O)[C@@H](NC(=O)CCCCNC(=O)c2ccc(-c3cnc(NCc4ccco4)n4cnnc34)cc2)C(C)(C)C)cc1 [UNC6853, (2S,4R)-1-((S)-2-(5-(4-(5-((furan-2-ylmethyl)amino)-[1,2,4]triazolo[4,3-c]pyrimidin-8-yl)benzamido)pentanamido)-3,3-dimethylbutanoyl)-4-hydroxy-N-(4-(4-methylthiazol-5-yl)benzyl)pyrrolidine-2-carboxamide]	significant degradation was not observed					
unable to alter the levels	14 fold	Cc1ncsc1-c1ccc(CNC(=O)[C@@H]2C[C@@H](O)CN2C(=O)[C@@H](NC(=O)COCCOCCOCCNC(=O)c2ccc(-c3cnc(NCc4ccco4)n4cnnc34)cc2)C(C)(C)C)cc1 [UNC6846, (2S,4R)-1-((S)-15-(tert-butyl)-1-(4-(5-((furan-2-ylmethyl)amino)-[1,2,4]triazolo[4,3-c]pyrimidin-8-yl)phenyl)-1,13-dioxo-5,8,11-trioxa-2,14-diazahexadecan-16-oyl)-4-hydroxy-N-(4-(4-methylthiazol-5-yl)benzyl)pyrrolidine-2-carboxamide]	unable to alter the levels					
decrease in the levels	6 fold	Cc1ncsc1-c1ccc(CNC(=O)[C@@H]2C[C@@H](O)CN2C(=O)[C@@H](NC(=O)CCNC(=O)c2ccc(-c3cnc(NCc4ccco4)n4cnnc34)cc2)C(C)(C)C)cc1 [UNC6851, (2S,4R)-1-((S)-2-(3-(4-(5-((furan-2-ylmethyl)amino)-[1,2,4]triazolo[4,3-c]pyrimidin-8-yl)benzamido)propanamido)-3,3-dimethylbutanoyl)-4-hydroxy-N-(4-(4-methylthiazol-5-yl)benzyl)pyrrolidine-2-carboxamide]	decrease in the levels					
		CCCc1cc(C)[nH]c(=O)c1CNC(=O)c1cc(-c2ccc(N3CCN(C(C)C)CC3)nc2)cc2c1cnn2C(C)C [UNC1999, reference compound]		had no effect	had no effect	60%	67%	
		CS(=O)(=O)c1ccc(-c2cnc(NCc3ccco3)n3cnnc23)cc1 [EED226, reference compound]		had no effect	had no effect	52%	67%	IC50 (EED): 22 nM
unable to alter the levels	2 fold	Cc1ncsc1-c1ccc(CNC(=O)[C@@H]2C[C@@H](O)CN2C(=O)[C@@H](NC(=O)CCOCCOCCNC(=O)c2ccc(-c3cnc(NCc4ccco4)n4cnnc34)cc2)C(C)(C)C)cc1 [UNC6845, (2S,4R)-1-((S)-13-(tert-butyl)-1-(4-(5-((furan-2-ylmethyl)amino)-[1,2,4]triazolo[4,3-c]pyrimidin-8-yl)phenyl)-1,11-dioxo-5,8-dioxa-2,12-diazatetradecan-14-oyl)-4-hydroxy-N-(4-(4-methylthiazol-5-yl)benzyl)pyrrolidine-2-carboxamide]	unable to alter the levels					
unable to alter the levels	5 fold	Cc1ncsc1-c1ccc(CNC(=O)[C@@H]2C[C@@H](O)CN2C(=O)[C@@H](NC(=O)CCOCCOCCOCCOCCNC(=O)c2ccc(-c3cnc(NCc4ccco4)n4cnnc34)cc2)C(C)(C)C)cc1 [UNC6847, (2S,4R)-1-((S)-19-(tert-butyl)-1-(4-(5-((furan-2-ylmethyl)amino)-[1,2,4]triazolo[4,3-c]pyrimidin-8-yl)phenyl)-1,17-dioxo-5,8,11,14-tetraoxa-2,18-diazaicosan-20-oyl)-4-hydroxy-N-(4-(4-methylthiazol-5-yl)benzyl)pyrrolidine-2-carboxamide]	unable to alter the levels					
		Cc1ncsc1-c1ccc(CNC(=O)[C@@H]2C[C@H](O)CN2C(=O)[C@@H](NC(=O)CCCNC(=O)c2ccc(-c3cnc(NCc4ccco4)n4cnnc34)cc2)C(C)(C)C)cc1 [UNC7043, (2S,4S)-1-((S)-2-(4-(4-(5-((furan-2-ylmethyl)amino)-[1,2,4]triazolo[4,3-c]pyrimidin-8-yl)benzamido)butanamido)-3,3-dimethylbutanoyl)-4-hydroxy-N-(4-(4-methylthiazol-5-yl)benzyl)pyrrolidine-2-carboxamide]						EED degradation (western blot) (EED in HeLa cells [4]; HeLa cells, 10 μM for 24 hrs): did not degrade; EZH2 degradation (western blot) (EZH2 in HeLa cells [5]; 10 μM for 24 hrs): did not degrade; SUZ12 degradation (western blot) (SUZ12 in HeLa cells [6]; 10 μM for 24 hrs): did not degrade; EED levels (western blot) ([8]; DB cells, 10 μM for 24 hours): did not affect the levels; EZH2 levels (western blot) ([9]; 10 μM for 24 hours): did not affect the levels; SUZ12 levels (western blot) ([10]; DB cells, 10 μM for 24 hours): did not affect the levels; effect on cell proliferation (DB cells): had no effect on cell proliferation; effect on cell proliferation (Pfeiffer cells): had no effect on cell proliferation

Compound	EED levels (Jess) (EED in HeLa cells [1])	loss in potency compared to EED226 [3]	EZH2 levels (Jess) (EZH2 in HeLa cells [2])	EED protein levels (EED in HeLa cells [4]; HeLa cells)	EZH2 protein levels (EZH2 in HeLa cells [5])	H3K27me3 reduced (H3K27me3 in HeLa cells)	viability at 12 days, 3 μM (DB cell viability)	also measured
Cc1ncsc1-c1ccc(CNC(=O)[C@@H]2C[C@@H](O)CN2C(=O)[C@@H](NC(=O)CCCNC(=O)c2ccc(-c3cnc(NCc4ccco4)n4cnnc34)cc2)C(C)(C)C)cc1 [UNC6852, (2S,4R)-1-((S)-2-(4-(4-(5-((furan-2-ylmethyl)amino)-[1,2,4]triazolo[4,3-c]pyrimidin-8-yl)benzamido)butanamido)-3,3-dimethylbutanoyl)-4-hydroxy-N-(4-(4-methylthiazol-5-yl)benzyl)pyrrolidine-2-carboxamide]	decrease in the levels	5.5 fold	decrease in the levels	decrease in protein levels	decrease in protein levels	51%	95%	EED degradation (EED in HeLa cells [4]; HeLa cells, 5 μM, 24 hours, western blot): 80%; Dmax at 30 µM (EED in HeLa cells [4]; HeLa, read-out: Dmax EED (maximal degradation)): 92%; EZH2 degradation (EZH2 in HeLa cells [5]; 5 μM, 24 hours, western blot): 76%; Dmax EZH2 (maximal degradation) (EZH2 in HeLa cells [5]; % degradation at 30 μM after 24 hours): 75%; Dmax SUZ12 (maximal degradation) (SUZ12 in HeLa cells [6]; western blot): 22%; cellular toxicity (HeLa cells): no cellular toxicity was observed; SUZ12 degradation (proteomics) (SUZ12 in HeLa cells [7]): 21%; SUZ12 log2 fold change (treated/DMSO treated) (SUZ12 in HeLa cells [7]): −0.34; H3K27me3 levels after 96 hours (H3K27me3 in HeLa cells; 96 hours of treatment): further decrease in H3K27me3 levels; Dmax ([8]; DB, read-out: Dmax EED): 94%; DC50 ([8]; read-out: DC50 EED, DB cells, 24 hours): 610 ± 180 nM; Dmax EZH2/EZH2^Y641N [9]: 96%; DC50 ([9]; read-out: DC50 EZH2/EZH2^Y641N, 24 hours): 670 ± 240 nM; Dmax SUZ12 ([10]; DB cells): 82%; maximal degradation of SUZ12 in DB cells relative to HeLa cells ([10]; DB vs HeLa): 3.7 fold; EC50 ([10]; read-out: half maximal degradation concentration SUZ12, DB cells, 24 hours): 590 ± 170 nM; loss of H3K27me3 [11]: 71%; degradation of PRC2 subunits [12]: degradation of all three PRC2 subunits; effect on cell proliferation (DB cells): robust anti-proliferative effects; effect on cell proliferation (Pfeiffer cells): robust anti-proliferative effects
